In patent US20250034182A1, “PHOSPHOLIPID COMPOUNDS AND METHODS OF MAKING AND USING THE SAME” (priority 2021, published 2025):

How the values were obtained:
Format in all cases: cell-based
[1] = test system: Respiratory syncytial virus recombinant with luciferase (RSV-Luc5) in HEp-2 cells; experiment: HEp-2 RSV-Luc5 384-well assay (EC50 RSVFLUC Hep2-384, Example R); conditions: human respiratory syncytial virus, HEp-2, 72 h, read-out: RSV Hep-2 FLuc EC50 (nM) (per Ex. R)
Source text: HEp-2 cell line was purchased from ATCC (Manassas, VA Cat #CCL-23) and maintained in Dulbecco's […] (DMEM) (Corning, New York, NY, Cat #15-018CM) supplemented with 10% fetal bovine serum (FBS) (Hyclone, Logan, UT, Cat #SH30071-03) and 1× Penicillin-Streptornycin-L-Glutamine (Corning, New York, NY, Cat #30-009-CI). Cells were passaged 2 times per week to maintain sub-confluent densities and were used for experiments at passage 5-20. Respiratory syncytial virus recombinant with luciferase (RSV-Luc5) direct pelleted virus (≥1×107 TCID50/ml) was purchased from Microbiologics (Saint Cloud, MN). Viral replication was determined in HEp-2 cells in the following manner.
Compounds are prepared in 384-well polypropylene plates (Greiner, Monroe, NC, Cat #784201) with 8 compounds per plate in grouped replicates of 4 at 10 serially diluted concentrations (1:3).
HEp-2 cells were suspended in DMEM (supplemented with 10% FBS and 1×Penicillin-Streptonycin-L-Glutimine) and 60 μL of 4,000 cells per well were seeded into 384-well plates (Greiner, Monroe, NC, Cat #781080) using Biotek MultiFlo dispenser. After overnight incubation at 37° C. and 5% CO2, 0.4 uL of three-fold serial dilutions of compound was added to each well using a Biomek FX pipette station. RSV-Luc5 viruses were diluted in DMEM (supplemented with 10% FBS and 1× Penicillin-Streptonycin-L-Glutainie) at an MOI=0.5. Virus suspension was added to each 384-well compound plate at 20 uL per well using a Biotek MultiFlo dispenser. The assay plates were incubated for 3 days at 37° C. and 5% CO2. At the end of incubation, One-Glo reagent (Promega, Madison, WI, Cat #E6120) was prepared. The assay plate and the reagent were equilibrated to room temperature for 30 minutes. 50 uL per well of medium was removed from assay plate and 40 uL per well of One-Glo reagent was added to each plate by Biomek FX. The plates were sat at room temp for 15 minutes. Viral replication was then assessed by measuring luminescence signal using and Envision plate reader. Remdesivir was used as positive control and DMSO was used as negative control. Values were normalized to the positive and negative controls (as 0% and 100% replication, respectively) and data was fitted using non-linear regression analysis by Gilead's dose response tool. The EC50 value for each compound was then determined as the concentration reducing the viral replication by 50%.

in vitro [2] = conditions: human
in vitro [3] = conditions: human; remark: listed apart in the source
Procedure: H1-HeLa cell viability was measured using the CellTiter-Glo® Luminescent Cell Viability Assay kit (Promega, Cat #G7573) according to the manufacturer's protocol. H1-HeLa cells were maintained in Dulbecco's Modified Eagle's Medium with high glucose (Gibco, Cat #: 11995073) supplemented with 10% FBS (HyClone, Cat #: SH303396.03), 100 units/mL penicillin and 100 µg/mL streptomycin (Gibco, Cat #: 15140122). One day before compound treatment, H1-HeLa cells were seeded at […] into 96-well plates (Corning, Cat #3904) in Opti-MEM (Gibco, Cat #: 31985070) supplemented with 2% FBS, and were incubated at 37° C. in a 100% humid atmosphere containing 5% (v/v) CO2. After overnight incubation, the cells were treated with three-fold serial dilutions of the compound. At 96 hours post treatment, CellTiter-Glo reagents were added into each well and luminescence signals were recorded by an EnVision plate reader. The relative cell viability was calculated by normalizing the absorbance of the compound-treated groups to that of the DMSO-treated groups (set as 100% viability) and 10 μM puromycin treated groups (set as 0% viability). The CC50 (compound concentration for reducing 50% of cell viability) was calculated using a nonlinear regression model (four parameters).

For `CCCCCCCCCCCCCCCCCCOC[C@H](COP(=O)(O)OC[C@@]1(C#N)O[C@@H](c2ccc3c(N)ncnn23)[C@H](O)[C@@H]1O)OCc1ccc(C#N)cc1OC` [Compound 73, ((2R,3S,4R)-5-(4-aminopyrrolo[2,1-f][1,2,4]triazin-7-yl)-2-cyano-3,4-dihydroxytetrahydrofuran-2-yl)methyl ((R)-2-((4-cyano-2-methoxybenzyl)oxy)-3-(octadecyloxy)propyl) hydrogen phosphate], the EC50 [1] was 195 nM and the CC50 (in vitro [2]) was 19 µM.
Compound `CCCCCCCCCCCCCCCCC[C@H](COP(=O)(O)OC[C@@]1(C#N)O[C@@H](c2ccc3c(N)ncnn23)[C@H](O)[C@@H]1O)OCc1cc(F)cc(C#N)c1` [Compound 36, ((2R,3S,4R,5S)-5-(4-aminopyrrolo[2,1-f][1,2,4]triazin-7-yl)-2-cyano-3,4-dihydroxytetrahydrofuran-2-yl)methyl ((R)-2-((3-cyano-5-fluorobenzyl)oxy)nonadecyl) hydrogen phosphate] has an EC50 [1] of 155 nM, a CC50 (in vitro [2]) of 17 µM and a CC50 at 96 h (in vitro [3]) of 9.56 µM.
Work on `CCCCCCCCCCCCCCCCCCC[C@H](COP(=O)(O)OC[C@@]1(C#N)O[C@@H](c2ccc3c(N)ncnn23)[C@H](O)[C@@H]1O)OCc1cc(F)cc(C#N)c1` [Compound 25, ((2R,3S,4R,5S)-5-(4-aminopyrrolo[2,1-f][1,2,4]triazin-7-yl)-2-cyano-3,4-dihydroxytetrahydrofuran-2-yl)methyl ((R)-2-((3-cyano-5-fluorobenzyl)oxy)henicosyl) hydrogen phosphate] yielded an EC50 [1] of 291 nM, a CC50 (in vitro [2]) of 13 µM and a CC50 at 96 h (in vitro [3]) of 8.49 µM.
`CCCCCCCCCCCCCCCCCOC[C@H](COP(=O)(O)OC[C@@]1(C#N)O[C@@H](c2ccc3c(N)ncnn23)[C@H](O)[C@@H]1O)OCc1cc(F)cc(C#N)c1` [Compound 53, ((2R,3S,4R,5S)-5-(4-aminopyrrolo[2,1-f][1,2,4]triazin-7-yl)-2-cyano-3,4-dihydroxytetrahydrofuran-2-yl)methyl ((R)-2-((3-cyano-5-fluorobenzyl)oxy)-3-(heptadecyloxy)propyl) hydrogen phosphate] showed an EC50 [1] of 113 nM and a CC50 (in vitro [2]) of 16 µM.
With `CCCCCCCCCCCCCCCCCCOC[C@H](COP(=O)(O)OC[C@@]1(C#N)O[C@@H](c2ccc3c(N)ncnn23)[C@H](O)[C@@H]1O)OCc1ccc(C#N)c(Cl)c1` [Compound 7, ((2R,3S,4R,5S)-5-(4-aminopyrrolo[2,1-f][1,2,4]triazin-7-yl)-2-cyano-3,4-dihydroxytetrahydrofuran-2-yl)methyl ((R)-2-((3-chloro-4-cyanobenzyl)oxy)-3-(octadecyloxy)propyl) hydrogen phosphate] the EC50 [1] was 84 nM, the CC50 (in vitro [2]) was 19 µM and the CC50 at 96 h (in vitro [3]) was 3.88 µM.
`CCCCCCCCCCCCCCCCCCOC[C@H](COP(=O)(O)OC[C@@]1(C#N)O[C@@H](c2ccc3c(N)ncnn23)[C@H](O)[C@@H]1O)OCc1cc(F)cc(C#N)c1` [Compound 1, ((2R,3S,4R,5S)-5-(4-aminopyrrolo[2,1-f][1,2,4]triazin-7-yl)-2-cyano-3,4-dihydroxytetrahydrofuran-2-yl)methyl ((R)-2-((3-cyano-5-fluorobenzyl)oxy)-3-(octadecyloxy)propyl) hydrogen phosphate] showed an EC50 [1] of 100 nM, a CC50 (in vitro [2]) of 18 µM and a CC50 at 96 h (in vitro [3]) of 3.62 µM.
In the case of `CCCCCCCCCCCCCCCCCC[C@@H](COP(=O)(O)OC[C@@]1(C#N)O[C@@H](c2ccc3c(N)ncnn23)[C@H](O)[C@@H]1O)OCc1cc(F)cc(C#N)c1` [Compound 37, ((2R,3S,4R)-5-(4-aminopyrrolo[2,1-f][1,2,4]triazin-7-yl)-2-cyano-3,4-dihydroxytetrahydrofuran-2-yl)methyl ((S)-2-((3-cyano-5-fluorobenzyl)oxy)icosyl) hydrogen phosphate], the EC50 [1] is reported as 304 nM and the CC50 (in vitro [2]) is reported as 16 µM.
Compound `CCCCCCCCCCCCCCCCCCOC[C@H](COP(=O)(O)OC[C@@]1(C#N)O[C@@H](c2ccc3c(N)ncnn23)[C@H](O)[C@@H]1O)OCc1cccc(C#N)n1` [Compound 68, ((2R,3S,4R)-5-(4-aminopyrrolo[2,1-f][1,2,4]triazin-7-yl)-2-cyano-3,4-dihydroxytetrahydrofuran-2-yl)methyl ((R)-2-((6-cyanopyridin-2-yl)methoxy)-3-(octadecyloxy)propyl) hydrogen phosphate] has an EC50 [1] of 118 nM and a CC50 at 96 h (in vitro [3]) of 8.71 µM.
With `CCCCCCCCCCCCCCCCCCOC[C@H](COP(=O)(O)OC[C@@]1(C#N)O[C@@H](c2ccc3c(N)ncnn23)[C@H](O)[C@@H]1O)OCc1ccc(C#N)nc1` [Compound 19, ((2R,3S,4R,5S)-5-(4-aminopyrrolo[2,1-f][1,2,4]triazin-7-yl)-2-cyano-3,4-dihydroxytetrahydrofuran-2-yl)methyl ((R)-2-((6-cyanopyridin-3-yl)methoxy)-3-(octadecyloxy)propyl) hydrogen phosphate] the EC50 [1] was 48 nM and the CC50 (in vitro [2]) was 25 µM.
